Assay results from ChEMBL document CHEMBL4811228, “Design, Synthesis, and Activity Evaluation of Novel Acyclic Nucleosides as Potential Anticancer Agents In Vitro and In Vivo” (J Med Chem, 2021).
Activity calls are given as the source filed them. The calls are words filed in the database; no cut-off is given here.

How the values were obtained:
HCT-116 [1] = test: Antiproliferative activity against human HCT-116 cells assessed as reduction in cell viability incubated for 48 hrs by MTT assay; type: functional, cell-based; conditions: HCT-116, 48 h
HCT-116 [2] = test: Potency index, ratio of 5-FU IC50 to test compound IC50 for antiproliferative activity against human HCT-116 cells; type: functional
SW480 [3] = test: Antiproliferative activity against human SW480 cells assessed as reduction in cell viability incubated for 48 hrs by MTT assay; type: functional, cell-based; conditions: SW480, 48 h
SW480 [4] = test: Binding affinity to 75kDa protein in human SW480 cells incubated for overnight by pull down based western blot analysis; type: cell-based
SW480 [5] = test: Binding affinity to 75kDa protein in human SW480 cells incubated for overnight by pull down based silver staining analysis; type: cell-based
HeLa = test: Antiproliferative activity against human HeLa cells assessed as reduction in cell viability incubated for 48 hrs by MTT assay; type: functional, cell-based
A549 = test: Antiproliferative activity against human A549 cells assessed as reduction in cell viability incubated for 48 hrs by MTT assay; type: functional, cell-based; conditions: A549, 48 h
U-87 MG = test: Antiproliferative activity against human U-87 MG cells assessed as reduction in cell viability incubated for 48 hrs by MTT assay; type: functional, cell-based, U-87MG ATCC

SMILES | IC50 (HCT-116 [1]) | IC50 (SW480 [3]) | also measured
CCCCCCCCCCC(CCO)n1cnc2c(N)ncnc21 (racemic) | 2.59 µM |  | Ratio IC50 (HCT-116 [2]): 4
C#CCCC1(CCNC(=O)CC(CCCCCCCCC)n2cnc3c(Cl)ncnc32)N=N1 (racemic) | 21.5 µM | 13 µM | Activity (SW480 [4]): Active; Activity (SW480 [5]): Active
CCCCCC(CCO)n1c(Br)nc2c(Cl)ncnc21 (racemic) | 18.3 µM | 23.8 µM | 
CCCCCCCCCC(CCOCP(=O)(O)O)n1cnc2c(Cl)ncnc21 (racemic) | > 50 µM | > 50 µM | 
CCCCCCCCCCCC(CCO)n1cnc2c(N)nc(Cl)nc21 (racemic) | 19.9 µM | 17.8 µM | 
CCCCCCCCC(CCO)n1cnc2c(Cl)nc(Cl)nc21 (racemic) | 22.2 µM | 24 µM | 
CCCCCCC(CCO)n1cnc2c(N)ncnc21 (racemic) | > 50 µM | > 50 µM | 
CCCCCCCC[C@H](CCO)n1cnc2c(Cl)ncnc21 | 1.12 µM | 0.32 µM | 
CCCCCCCCC(CCO)n1cnc2c(N)ncnc21 (racemic) | 11.6 µM | 20.7 µM | 
CCCCCCCCCCC(CCO)n1cnc2c(NC)ncnc21 (racemic) | 12.7 µM | 12 µM | 
CCCCCCCCCC(CC(=O)NCCCCCNC(=O)CCCC[C@@H]1SC[C@@H]2NC(=O)N[C@@H]21)n1cnc2c(Cl)ncnc21 (mixture of isomers) | 44.7 µM | 45.2 µM | Activity (SW480 [5]): Active
CCCCCCCCCC(CCCl)n1cnc2c(Cl)ncnc21 (racemic) | 10.2 µM | 7.18 µM | 
CCCCCCCC(CCO)n1cnc2c(N(C)C)ncnc21 (racemic) | > 50 µM | > 50 µM | 
C#CCCC1(CCN)N=N1 |  |  | Activity (SW480 [4]): inactive
CCCCCCCCCC(CCO)n1c(Br)nc2c(Cl)ncnc21 (racemic) | 26.9 µM | 25 µM | 
CCCCC(CCO)n1cnc2c(OC)ncnc21 (racemic) | > 50 µM | > 50 µM | 
CCCCCCCCCCCC(CCO)n1cnc2c(NC)ncnc21 (racemic) | 15.4 µM | 12.8 µM | 
OCCC(COCc1ccccc1)n1cnc2c(Cl)nc(F)nc21 (racemic) | 5.24 µM | 7.17 µM | 
CCCCCCCCC[C@H](CCO)n1cnc2c(Cl)ncnc21 | 0.45 µM | 1.63 µM | 
CCCCCCCCC(CCO)n1cnc2c(NC)ncnc21 (racemic) | 3.73 µM | 3.77 µM | 
CCCCCCC(CCO)n1cnc2c(Cl)ncnc21 (racemic) | 11.9 µM | 16.7 µM | 
CCCC(CCO)n1cnc2c(Cl)nc(F)nc21 (racemic) | 16.5 µM | 17.2 µM | 
CCCCCCCCCC(CCO)n1cnc2c(NC)ncnc21 (racemic) | 5.41 µM | 4.45 µM | 
CCCCCCC(CCO)n1cnc2c(N(C)C)ncnc21 (racemic) | > 50 µM | > 50 µM | 

SMILES | IC50 (HCT-116 [1]) | IC50 (SW480 [3]) | also measured
CCCCCCCCCC(CCO)n1cnc2c(Cl)nc(F)nc21 (racemic) | 32 µM | 12.5 µM | 
O=C(OCC(CCO)n1cnc2c(Cl)nc(F)nc21)c1ccccc1 (racemic) | 5.17 µM | 7.24 µM | 
CCCCCCCCCC(CCO)n1cnc2c(OC)ncnc21 (racemic) | 2.53 µM | 3.25 µM | 
O=C(OCC(CCO)n1cnc2c(Cl)ncnc21)c1ccccc1 (racemic) | > 50 µM | > 50 µM | 
CCCCCCCCCCC(CCO)n1cnc2c(N)nc(Cl)nc21 (racemic) | 11.8 µM | 13.1 µM | 
O=c1[nH]cc(F)c(=O)[nH]1 [FLUOROURACIL] | 10.8 µM | 9.7 µM | IC50 (HeLa): > 50 µM; IC50 (A549): > 50 µM; IC50 (U-87 MG): > 50 µM
CCCCCCCCC(CCO)n1cnc2c(Cl)nc(F)nc21 (racemic) | 24.2 µM | 15 µM | 
CCCCCCCCC[C@H](CCN=[N+]=[N-])n1cnc2c(Cl)ncnc21 | 1.19 µM | 1.22 µM | 
CCCCCCCCC(CCO)n1cnc2c(N)nc(Cl)nc21 (racemic) | 21 µM | 13.1 µM | 
CCCCCCC(CCO)n1cnc2c(NC)ncnc21 (racemic) | > 50 µM | > 50 µM | 
OCCC(CO)n1cnc2c(Cl)ncnc21 (racemic) | > 50 µM | > 50 µM | 
CCCCCCCCCCCC(CCO)n1cnc2c(OC)ncnc21 (racemic) | 8.23 µM | 9.7 µM | 
CCCCCCCC(CCO)n1cnc2c(Cl)nc(F)nc21 (racemic) | 17.6 µM | 26.1 µM | 
CCC(CCO)n1cnc2c(Cl)ncnc21 (racemic) | > 50 µM | > 50 µM | 
CCCCCCCCCC(CCn1cc(-c2ccccc2)nn1)n1cnc2c(Cl)ncnc21 (racemic) | 13.5 µM | 9.92 µM | 
CCCCCCC(CCO)n1cnc2c(OC)ncnc21 (racemic) | > 50 µM | > 50 µM | 
CCCCCCCCCCCCC(CCO)n1cnc2c(Cl)ncnc21 (racemic) | > 50 µM | > 50 µM | 
CCCCCCC(CCO)n1cnc2c(N)nc(Cl)nc21 (racemic) | > 50 µM | > 50 µM | 
CCCCC(CCO)n1cnc2cncnc21 (racemic) | > 50 µM | > 50 µM | 
CCCCCCC(CCO)n1cnc2c(Cl)nc(Cl)nc21 (racemic) | 12.1 µM | 12.4 µM | 
CC(CCO)n1cnc2c(Cl)ncnc21 (racemic) | > 50 µM | > 50 µM | 
CCCCCCCCC[C@H](CCn1cc(-c2ccccc2)nn1)n1cnc2c(Cl)ncnc21 | 8.13 µM | 8.57 µM | 
CCCCCCCC[C@@H](CCO)n1cnc2c(Cl)ncnc21 | 3.4 µM | 2.33 µM | 
C=C(CO)C(c1ccccc1)n1cnc2c(Cl)ncnc21 (racemic) | 33.3 µM | 12.9 µM | 

SMILES | IC50 (HCT-116 [1]) | IC50 (SW480 [3]) | also measured
CCCCCC(CCO)n1cnc2c(N(C)C)ncnc21 (racemic) | > 50 µM | > 50 µM | 
CCCCCCCCCC(CCO)n1cnc2c(N(C)C)ncnc21 (racemic) | 9.81 µM | 12.2 µM | 
CCCCC(CCO)n1cnc2c(Cl)nc(F)nc21 (racemic) | 13.5 µM | 13.2 µM | 
CCCCCCC(CCO)n1cnc2cncnc21 (racemic) | > 50 µM | > 50 µM | 
CCCCCCC(CCO)n1cnc2c(Cl)nc(F)nc21 (racemic) | 9.96 µM | 12.9 µM | 
C=C(CO)C(CCCCCCC)n1cnc2c(Cl)ncnc21 (racemic) | 22.4 µM | 29.4 µM | 
CCC(CCO)n1cnc2c(Cl)nc(F)nc21 (racemic) | 18.9 µM | 19.8 µM | 
C=C(CO)C(CCCCCCCC)n1cnc2c(Cl)ncnc21 (racemic) | 19.4 µM | 16.2 µM | 
CCCCCCCCC[C@H](CCOCP(=O)(OCC)OCC)n1cnc2c(Cl)ncnc21 | 10.9 µM | 5.57 µM | 
CCCCCC(CCO)n1cnc2c(Cl)nc(F)nc21 (racemic) | 8.66 µM | 7.44 µM | 
CCCCCC(CCO)n1cnc2c(NC)ncnc21 (racemic) | > 50 µM | > 50 µM | 
CCCCCC(CCO)n1cnc2c(Cl)nc(Cl)nc21 (racemic) | 6.17 µM | 6.01 µM | 
C=C(CO)C(CCCCCC)n1cnc2c(Cl)ncnc21 (racemic) | 30.2 µM | 32 µM | 
CC(C)(C)[Si](C)(C)OCC(CCO)n1cnc2c(Cl)ncnc21 (racemic) | > 50 µM | 31.7 µM | 
CCCCCCCCC(CCO)n1cnc2c(N(C)C)ncnc21 (racemic) | 19.8 µM | 21.6 µM | 
CCCCCCCCC[C@@H](CCO)n1cnc2c(Cl)ncnc21 | 1.05 µM | 3.62 µM | 
CCCC(CCO)n1cnc2c(Cl)ncnc21 (racemic) | > 50 µM | > 50 µM | 
CCCCCCCCCCC(CCO)n1cnc2c(OC)ncnc21 (racemic) | 7.53 µM | 8.26 µM | 
CCCCCCCCC(CCO)n1cnc2c(OC)ncnc21 (racemic) | 12.8 µM | 24.6 µM | 
CCCCCCCCCCCC(CCO)n1cnc2c(Cl)ncnc21 (racemic) | 7.59 µM | 5.29 µM | 
CCCCCCCCCCC(CCO)n1cnc2c(N(C)C)ncnc21 (racemic) | 5.49 µM | 3.32 µM | 
CCCCCCCC(CCO)n1c(Br)nc2c(Cl)ncnc21 (racemic) | 16.2 µM | 14.4 µM | 
